A value given as a limit tells only on which side of the number the result lay.

The text below walks through data of patent publication US20250154163A1, “Pyrimidinone-Containing 17-Beta-Hydroxysteroid Dehydrogenase Type 13 Inhibitors” (ENANTA PHARMACEUTICALS, INC., priority 2023, published 2025).

Assay [1] has as its target T1, human HSD17β13 (stable HEK293T cell line overexpressing human HSD17β13) (Homo sapiens, UniProt Q7Z5P4).
T1 construct: expressed in transfected cells
T1 sequence (Q7Z5P4 20-300): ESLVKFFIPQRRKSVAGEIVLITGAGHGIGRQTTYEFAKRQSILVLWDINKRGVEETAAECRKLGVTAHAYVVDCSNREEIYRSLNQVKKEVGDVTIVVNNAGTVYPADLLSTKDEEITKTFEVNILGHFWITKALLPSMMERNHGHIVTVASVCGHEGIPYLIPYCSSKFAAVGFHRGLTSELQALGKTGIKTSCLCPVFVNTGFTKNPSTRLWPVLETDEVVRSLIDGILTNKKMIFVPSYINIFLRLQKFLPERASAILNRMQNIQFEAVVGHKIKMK
Description: HSD17β13 inhibitor cell-based screening assay (conversion of estradiol-d2 to estrone-d2 by RF-MS). To be noted: conversion of estradiol-d2 to estrone-d2 after 24 hours. The procedure, abridged: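 Cellular IC50 is based on 24-h conversion of estradiol-d2 (5 μM final) to estrone-d2, measured by RF-MS in acetonitrile-precipitated supernatants. Assay uses human HSD17β13-overexpressing HEK293T cells (7.5E3/well, 1% charcoal/dextran FBS MEM), with compounds dosed as a 9-point 1:3 series to 10 μM final. ATPlite luminescence on overexpressing and parent lines measured viability.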

The target of assay [2] is T2, Recombinant human 17β-HSD13 (Homo sapiens, UniProt Q7Z5P4).
T2 construct: host or cells: Sf9 insect cells
T2 sequence (Q7Z5P4 20-300): T1 sequence (Q7Z5P4 20-300)
Nature of the assay: 17β-HSD13 rapid-fire mass spectrometry assay (RF/MS assay). The note with it: inhibition of 17β-HSD13, RF/MS assay; HSD17B13 80 nM, LTB4 10 μM, NAD+ 0.5 mM, RT 3 h. It is filed as biochemical. In a few lines:
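Purified recombinant human 17β-HSD13 (sf9-expressed, 80 nM) incubated with compound (0–100 μM), 10 μM LTB4 and 0.5 mM NAD+ in 20 mM Tris pH 7.5, 0.005% BSA, 0.01% Tween-20, 3 h at RT. 12-oxo-LTB4 formation quantified by RapidFire MS/MS; percent conversion normalized to controls, IC50 from variable-slope fit, duplicates.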

`COc1ccc(-c2nc3sc4c(ccc5[nH]c(=O)oc54)c3c(=O)n2Cc2cnco2)c(C2CC2)c1` [Example 29, 8-(2-cyclopropyl-4-methoxyphenyl)-7-(oxazol-5-ylmethyl)-3,7-dihydrooxazolo[5″,4″:3′,4′]benzo[1′,2′:4,5]thieno[2,3-d]pyrimidine-2,6-dione]: the IC50 (usually the concentration at which inhibition is half-maximal) was 500 to 1000 nM in assay [1] and over 10000 nM in assay [2].

With `O=c1c2c(nc(-c3ccc(F)cc3C3CC3)n1Cc1cnc(C3CC3)o1)sc1c(O)c(Cl)ccc12` [Example 50, 7-chloro-2-(2-cyclopropyl-4-fluorophenyl)-3-((2-cyclopropyloxazol-5-yl)methyl)-8-hydroxybenzo[4,5]thieno[2,3-d]pyrimidin-4(3H)-one], the concentration for half-maximal inhibition (IC50) in assay [1] and in assay [2] was under 100 nM throughout.

As to `COc1ccc(-c2nc3sc4c(O)c(C)ccc4c3c(=O)n2Cc2cnco2)c(C2CC2)c1` [Example 32, 2-(2-cyclopropyl-4-methoxyphenyl)-8-hydroxy-7-methyl-3-(oxazol-5-ylmethyl)benzo[4,5]thieno[2,3-d]pyrimidin-4(3H)-one], the half-maximal inhibitory concentration (IC50) in assay [1] was 100 to 500 nM; in assay [2] it was under 100 nM.

In the case of `Cc1cc(Cn2c(-c3ccc(F)cc3C3CC3)nc3sc4c(O)c(Cl)ccc4c3c2=O)on1` [Example 43, 7-chloro-2-(2-cyclopropyl-4-fluorophenyl)-8-hydroxy-3-((3-methylisoxazol-5-yl)methyl)benzo[4,5]thieno[2,3-d]pyrimidin-4(3H)-one], the IC50 in assay [1] and in assay [2] was under 100 nM each time.

`CCCCc1cccc2c1sc1nc(-c3ccc(OC)cc3C3CC3)n(Cc3cnco3)c(=O)c12` [Example 10, 8-butyl-2-(2-cyclopropyl-4-methoxyphenyl)-3-(oxazol-5-ylmethyl)benzo[4,5]thieno[2,3-d]pyrimidin-4(3H)-one]: the IC50 in assay [1] was 100 to 500 nM; in assay [2], over 10000 nM.

As to `CCc1ncc(Cn2c(-c3ccc(OC)cc3C3CC3)nc3sc4c(O)c(Cl)ccc4c3c2=O)s1` [Example 41, 7-chloro-2-(2-cyclopropyl-4-methoxyphenyl)-3-((2-ethylthiazol-5-yl)methyl)-8-hydroxybenzo[4,5]thieno[2,3-d]pyrimidin-4(3H)-one], the IC50 in assay [1] and in assay [2] was under 100 nM throughout.

As to `COc1ccc(-c2nc3sc4c(O)c(Cl)ccc4c3c(=O)n2Cc2cnn(C)c2)c(C2CC2)c1` [Example 86], the IC50 in assay [1] and in assay [2] was under 100 nM in each case.

Consider `CC(C)Oc1ccc(-c2nc3sc4c(O)c(Cl)ccc4c3c(=O)n2Cc2cnco2)c(C2CC2)c1` [Example 73], for which the IC50 in assay [1] and in assay [2] was under 100 nM each time.

Turning to `COc1ccc(-c2nc3sc4c(O)c(Br)ccc4c3c(=O)n2Cc2cnco2)c(C2CC2)c1` [Example 24, 7-bromo-2-(2-cyclopropyl-4-methoxyphenyl)-8-hydroxy-3-(oxazol-5-ylmethyl)benzo[4,5]thieno[2,3-d]pyrimidin-4(3H)-one], the IC50 in assay [1] and in assay [2] was under 100 nM each time.

As to `C=CCc1ccc2c(sc3nc(-c4ccc(OC)cc4C4CC4)n(Cc4cnco4)c(=O)c32)c1O` [Example 21, 7-allyl-2-(2-cyclopropyl-4-methoxyphenyl)-8-hydroxy-3-(oxazol-5-ylmethyl)benzo[4,5]thieno[2,3-d]pyrimidin-4(3H)-one], the IC50 in assay [1] is 1000 to 100000 nM; in assay [2] it was 100 to 1000 nM.
